# Measured values published in patent publication US8263598B2, “Substituted sulfonamide compounds” (Gruenenthal GmbH, priority 2008, dated 2012).
# Assays:
# [1] = target: T1, human B1R receptor (hB1R) (Homo sapiens, UniProt P46663); assay: FLIPR Ca2+ assay on human bradykinin 1 receptor (CHO K1 hB1R cells); type: cell-based; conditions: test substance 10 μM; CHO K1 cells with human B1R gene; agonist Lys-Des-Arg9-bradykinin 0.5 nM; compared to maximum achievable inhibition
# T1 construct: host or cells: CHO K1 cells
# T1 sequence (P46663 1-353): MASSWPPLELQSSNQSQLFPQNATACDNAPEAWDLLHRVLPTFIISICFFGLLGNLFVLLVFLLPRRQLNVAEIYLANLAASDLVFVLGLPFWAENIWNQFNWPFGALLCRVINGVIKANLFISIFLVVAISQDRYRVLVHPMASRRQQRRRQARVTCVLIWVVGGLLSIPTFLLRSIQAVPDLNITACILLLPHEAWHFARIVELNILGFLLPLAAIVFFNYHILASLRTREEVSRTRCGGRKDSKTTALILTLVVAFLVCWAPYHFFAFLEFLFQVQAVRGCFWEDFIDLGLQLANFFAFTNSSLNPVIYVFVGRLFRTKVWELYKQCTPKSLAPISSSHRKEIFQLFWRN
# Outline: (§1)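 CHO K1 cells stably expressing human or rat B1R were loaded with Fluo-4 and tested at 10 μM compound. Ca²⁺ signal was read in FLIPR as % activation versus agonist. After 10 min, agonist was added (hB1R: Lys-Des-Arg9-bradykinin 0.5 nM; rB1R: Des-Arg9-bradykinin 100 nM), and % inhibition was taken relative to maximum achievable inhibition.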
# [2] = target: T2, B1R receptor of rats (rB1R) (Rattus norvegicus, UniProt P97583); assay: FLIPR Ca2+ assay on rat bradykinin 1 receptor (CHO K1 rB1R cells); type: cell-based; conditions: test substance 10 μM; CHO K1 cells with B1R gene of rats; agonist Des-Arg9-bradykinin 100 nM; compared to maximum achievable inhibition
# T2 construct: host or cells: CHO K1 cells
# T2 sequence (P97583 1-337): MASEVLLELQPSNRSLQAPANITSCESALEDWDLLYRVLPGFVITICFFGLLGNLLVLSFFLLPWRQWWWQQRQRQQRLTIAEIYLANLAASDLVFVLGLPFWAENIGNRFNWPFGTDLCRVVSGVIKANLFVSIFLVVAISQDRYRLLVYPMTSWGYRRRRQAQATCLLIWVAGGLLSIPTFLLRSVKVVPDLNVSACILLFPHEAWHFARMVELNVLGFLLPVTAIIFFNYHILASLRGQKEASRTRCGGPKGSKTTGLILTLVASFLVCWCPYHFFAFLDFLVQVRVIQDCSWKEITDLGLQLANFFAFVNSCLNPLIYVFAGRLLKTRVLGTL
# Outline: as §1
SMILES,inhibition at 10 µM [1],inhibition at 10 µM [2]
"COc1ccc(C2c3cccn3CCN2C(=O)COCCN(C)S(=O)(=O)c2c(C)cc(C)cc2C)cc1 (centres unmarked) [Example 69, N-(2-(2-(1-(4-methoxyphenyl)-3,4-dihydropyrrolo[1,2-a]pyrazin-2(1H)-yl)-2-oxoethoxy)ethyl)-N,2,4,6-tetramethylbenzenesulfonamide]",101%,100%
"Cc1cc(C)c(S(=O)(=O)N(C)CCOCC(=O)N2CCn3cccc3C2c2cccs2)c(C)c1 (centres unmarked) [Example 74, N,2,4,6-tetramethyl-N-(2-(2-oxo-2-(1-(thiophen-2-yl)-3,4-dihydropyrrolo[1,2-a]pyrazin-2(1H)-yl)ethoxy)ethyl)benzenesulfonamide]",99%,102%
"Cc1cc(C)c(S(=O)(=O)N(C)CCOCC(=O)N2CCn3cccc3C2c2ccc(C(C)(C)C)cc2)c(C)c1 (centres unmarked) [Example 78, N-(2-(2-(1-(4-tert-butylphenyl)-3,4-dihydropyrrolo[1,2-a]pyrazin-2(1H)-yl)-2-oxoethoxy)ethyl)-N,2,4,6-tetramethylbenzenesulfonamide]",32%,77%
"COc1cc(C)c(S(=O)(=O)N(C)CCOCC(=O)N2CCn3cccc3C2C(C)(C)C)c(C)c1C (centres unmarked) [Example 79, N-(2-(2-(1-tert-butyl-3,4-dihydropyrrolo[1,2-a]pyrazin-2(1H)-yl)-2-oxoethoxy)ethyl)-4-methoxy-N,2,3,6-tetramethylbenzenesulfonamide]",101%,100%
"COc1cc(C)c(S(=O)(=O)N(C)CCOCC(=O)N2CCn3cccc3C2C)c(C)c1C (centres unmarked) [Example 80, 4-methoxy-N,2,3,6-tetramethyl-N-(2-(2-(1-methyl-3,4-dihydropyrrolo[1,2-a]pyrazin-2(1H)-yl)-2-oxoethoxy)ethyl)benzenesulfonamide]",99%,97%
"COc1cc(C)c(S(=O)(=O)N(C)CCOCC(=O)N2CCn3cccc3C2c2cccnc2)c(C)c1C (centres unmarked) [Example 81, 4-methoxy-N,2,3,6-tetramethyl-N-(2-(2-oxo-2-(1-(pyridin-3-yl)-3,4-dihydropyrrolo[1,2-a]pyrazin-2(1H)-yl)ethoxy)ethyl)benzenesulfonamide]",98%,99%
"COc1cc(C)c(S(=O)(=O)N(C)CCOCC(=O)N2CCn3cccc3C2c2ccc(Cl)nc2)c(C)c1C (centres unmarked) [Example 82, N-(2-(2-(1-(6-chloropyridin-3-yl)-3,4-dihydropyrrolo[1,2-a]pyrazin-2(1H)-yl)-2-oxoethoxy)ethyl)-4-methoxy-N,2,3,6-tetramethylbenzenesulfonamide]",101%,99%
"COc1ccc(C2c3cccn3CCN2C(=O)COCCN(C)S(=O)(=O)c2c(C)cc(OC)c(C)c2C)cc1 (centres unmarked) [Example 83, 4-methoxy-N-(2-(2-(1-(4-methoxyphenyl)-3,4-dihydropyrrolo[1,2-a]pyrazin-2(1H)-yl)-2-oxoethoxy)ethyl)-N,2,3,6-tetramethylbenzenesulfonamide]",101%,100%
"COc1cc(C)c(S(=O)(=O)N(C)CCOCC(=O)N2CCn3cccc3C2c2ccccc2)c(C)c1C (centres unmarked) [Example 84, 4-methoxy-N,2,3,6-tetramethyl-N-(2-(2-oxo-2-(1-phenyl-3,4-dihydropyrrolo[1,2-a]pyrazin-2(1H)-yl)ethoxy)ethyl)benzenesulfonamide]",101%,99%
"COc1cc(C)c(S(=O)(=O)N(C)CCOCC(=O)N2CCn3cccc3C2c2ccc(C)c(C)c2)c(C)c1C (centres unmarked) [Example 86, N-(2-(2-(1-(3,4-dimethylphenyl)-3,4-dihydropyrrolo[1,2-a]pyrazin-2(1H)-yl)-2-oxoethoxy)ethyl)-4-methoxy-N,2,3,6-tetramethylbenzenesulfonamide]",91%,71%
"COc1cc(C)c(S(=O)(=O)N(C)CCOCC(=O)N2CCn3cccc3C2c2cccc(F)c2)c(C)c1C (centres unmarked) [Example 87, N-(2-(2-(1-(3-fluorophenyl)-3,4-dihydropyrrolo[1,2-a]pyrazin-2(1H)-yl)-2-oxoethoxy)ethyl)-4-methoxy-N,2,3,6-tetramethylbenzenesulfonamide]",101%,100%

# Other lines, results leading:
inhibition at 10 µM [1],inhibition at 10 µM [2],SMILES
101%,99%,"Cc1cc(C)c(S(=O)(=O)N(C)CCOCC(=O)N2CCn3cccc3C2c2ccccc2)c(C)c1 (centres unmarked) [Example 70, N,2,4,6-tetramethyl-N-(2-(2-oxo-2-(1-phenyl-3,4-dihydropyrrolo[1,2-a]pyrazin-2(1H)-yl)ethoxy)ethyl)benzenesulfonamide]"
95%,95%,"Cc1cc(C)c(S(=O)(=O)N(C)CCOCC(=O)N2CCn3cccc3C2c2ccc(F)c(F)c2)c(C)c1 (centres unmarked) [Example 71, N-(2-(2-(1-(3,4-difluorophenyl)-3,4-dihydropyrrolo[1,2-a]pyrazin-2(1H)-yl)-2-oxoethoxy)ethyl)-N,2,4,6-tetramethylbenzenesulfonamide]"
97%,71%,"Cc1cc(C)c(S(=O)(=O)N(C)CCOCC(=O)N2CCn3cccc3C2c2ccc(C)c(C)c2)c(C)c1 (centres unmarked) [Example 72, N-(2-(2-(1-(3,4-dimethylphenyl)-3,4-dihydropyrrolo[1,2-a]pyrazin-2(1H)-yl)-2-oxoethoxy)ethyl)-N,2,4,6-tetramethylbenzenesulfonamide]"
102%,99%,"Cc1cc(C)c(S(=O)(=O)N(C)CCOCC(=O)N2CCn3cccc3C2c2cccc(F)c2)c(C)c1 (centres unmarked) [Example 73, N-(2-(2-(1-(3-fluorophenyl)-3,4-dihydropyrrolo[1,2-a]pyrazin-2(1H)-yl)-2-oxoethoxy)ethyl)-N,2,4,6-tetramethylbenzenesulfonamide]"
63%,48%,"Cc1cc(C)c(S(=O)(=O)N(C)CCOCC(=O)N2CCn3cccc3C2c2cccc(C(F)(F)F)c2)c(C)c1 (centres unmarked) [Example 75, N,2,4,6-tetramethyl-N-(2-(2-oxo-2-(1-(3-(trifluoromethyl)phenyl)-3,4-dihydropyrrolo[1,2-a]pyrazin-2(1H)-yl)ethoxy)ethyl)benzenesulfonamide]"
101%,97%,"COc1cccc(C2c3cccn3CCN2C(=O)COCCN(C)S(=O)(=O)c2c(C)cc(C)cc2C)c1 (centres unmarked) [Example 76, N-(2-(2-(1-(3-methoxyphenyl)-3,4-dihydropyrrolo[1,2-a]pyrazin-2(1H)-yl)-2-oxoethoxy)ethyl)-N,2,4,6-tetramethylbenzenesulfonamide]"
71%,53%,"Cc1cc(C)c(S(=O)(=O)N(C)CCOCC(=O)N2CCn3cccc3C2c2ccc(C(F)(F)F)cc2F)c(C)c1 (centres unmarked) [Example 77, N-(2-(2-(1-(2-fluoro-4-(trifluoromethyl)phenyl)-3,4-dihydropyrrolo[1,2-a]pyrazin-2(1H)-yl)-2-oxoethoxy)ethyl)-N,2,4,6-tetramethylbenzenesulfonamide]"
99%,92%,"COc1cc(C)c(S(=O)(=O)N(C)CCOCC(=O)N2CCn3cccc3C2c2ccc(F)c(F)c2)c(C)c1C (centres unmarked) [Example 85, N-(2-(2-(1-(3,4-difluorophenyl)-3,4-dihydropyrrolo[1,2-a]pyrazin-2(1H)-yl)-2-oxoethoxy)ethyl)-4-methoxy-N,2,3,6-tetramethylbenzenesulfonamide]"
